Data taken from PubChem BioAssay AID624433 (The Scripps Research Institute Molecular Screening Center, 2012).
The source made the active and inactive calls.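 How the source made its calls: active means compounds whose fitted IC50 falls under 25000 nM; inactive means the rest.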

The compounds below were run against Serine/threonine-protein phosphatase 5 (Homo sapiens) (UniProt P53041) (assay: PP5c phosphatase inhibition potency – biochemical, fluorescence, round 5, 3.8 nM low dose, dose response (AID 624433)). Conditions: purified PP5c, OMFP dephosphorylation.
Serine/threonine-protein phosphatase 5 (Homo sapiens), sequence (P53041 whole entry, looked up): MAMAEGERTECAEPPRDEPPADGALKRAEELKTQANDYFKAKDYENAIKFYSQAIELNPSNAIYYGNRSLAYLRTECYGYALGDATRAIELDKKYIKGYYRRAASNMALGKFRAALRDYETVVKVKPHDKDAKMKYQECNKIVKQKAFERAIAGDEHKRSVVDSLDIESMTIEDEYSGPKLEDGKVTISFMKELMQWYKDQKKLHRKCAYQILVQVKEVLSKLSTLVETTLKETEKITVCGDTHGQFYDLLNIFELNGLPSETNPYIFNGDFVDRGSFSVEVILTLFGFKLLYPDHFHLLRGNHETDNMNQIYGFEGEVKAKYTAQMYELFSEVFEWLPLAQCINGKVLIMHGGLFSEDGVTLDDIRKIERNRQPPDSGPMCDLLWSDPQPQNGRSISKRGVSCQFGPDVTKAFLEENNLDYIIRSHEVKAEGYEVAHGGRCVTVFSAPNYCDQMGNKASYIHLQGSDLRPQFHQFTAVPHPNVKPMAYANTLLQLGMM

IC50 | Structure (SMILES)
3.62 µM | CCOc1ccccc1-c1n[nH]nc1C(=O)O
2.86 µM | CC(C)Oc1ccccc1-c1n[nH]nc1C(=O)O
inactive | O=C(O)c1n[nH]nc1-c1ccccn1
19.9 µM | CCc1ccccc1-c1n[nH]nc1C(=O)O
inactive | CC(C)c1ccccc1-c1n[nH]nc1C(=O)O
inactive | O=C(O)c1n[nH]nc1-c1ccccc1-c1ccccc1
16.1 µM | Cc1ccccc1-c1n[nH]nc1C(=O)O
